Assay results reported in patent publication US20100069393A1, “METHOD OF TREATMENT AND AGENTS USEFUL FOR SAME” (PRANA BIOTECHNOLOGY LIMITED, priority 2006, published 2010).

Experiment: Neurotoxicity assay: MTS viability of primary cortical neuronal cultures
Format: cell-based, mouse
Settings: BL6Jx129sv, mouse, primary cortical neuronal cultures, Neuronal cells, read-out: Cytotoxicity (% viable at 1 and 10 uM); for viability at 4 days, 1 uM: test compound 1 uM; for viability at 4 days, 10 uM: test compound 10 uM
Experimental: Media was then replaced with Neurobasal media (Invitrogen Life Technologies) and B27 supplements (Invitrogen Life Technologies). Cultures were maintained at 37° C. in 5% CO2. Prior to experimentation, the culture medium was replaced with Neurobasal media and B27 minus antioxidants (Invitrogen Life Technologies).
Cell viability is determined using the MTS assay. Culture medium is replaced with fresh neurobasal medium plus B27 supplements minus antioxidants. 1/10th volume MTS solution (Cell Titre 96 Aqueous One, Promega Corporation) and incubated at 37° C., 2 hrs. 200 microlitre aliquots are measured with a spectrophotometer at 560 nm.
Neuronal cortical cells were cultured for five days as per Assay 2 in NB media and B27 supplement.
On day six the test compounds were added to the neuronal cell cultures in NB media and B27 supplement minus antioxidants.
Test compounds were dissolved in 100% DMSO to a concentration of 2.5 mM (10 mM if excess compound was weighed out per vial—then diluted to 2.5 mM). […] Test compounds were not added directly to cells, instead they were added to a 48 well ‘Drug Plate’ as comprised below:
The Drug Plate was incubated at 37° C. for 15 mins. 200 μl of each well was added in triplicate to the corresponding cell plate. The cell plate was incubated at 37 C, for 4 days.
On completion of the assay, 1/10 volume MTS was added per well of plate (i.e. 25 μl/250 μl). The plates were incubated at 37 C for 2 hrs, and then absorbance was read at 560 nm.

Row | SMILES | viability at 4 days, 1 uM [%] | viability at 4 days, 10 uM [%]
1 | Cc1cccc(-c2cc(Cl)c3cccnc3c2O)c1 | 98 | 73
2 | CN(c1ccccn1)c1ccc2c(Cl)cc(Cl)c(O)c2n1 | 100 | 59
3 | Oc1ccc(/C=C/c2ccc3cccc(O)c3n2)cc1 | 100 | 75
4 | Oc1c(Br)cc(Br)c2cccnc12 | 100 | 94
5 | O=C(Nc1nccs1)c1ccc2cccc(O)c2n1 | 100 | 100
6 | Oc1cccc2ccc(-n3cncn3)nc12 | 102 | 97
7 | COc1cccc(-c2cc(Cl)c3cccnc3c2O)c1 | 83 | 71
8 | Oc1c(Cl)cc(Cl)c2cccnc12 | 98 | 75
9 | CNCc1ccc2c(Cl)cc(Cl)c(O)c2n1 | 86 | 78
10 | CC(=O)NCc1ccc2cccc(O)c2n1 | 100 | 91
11 | Oc1cccc2ccc(CN(Cc3ccccn3)Cc3nccs3)nc12 | 97 | 38
12 | Oc1c(-c2ccccc2F)cc(Cl)c2cccnc12 | 96 | 54
13 | Oc1cccc2ccc(CNCc3ccccn3)nc12 | 96 | 67
14 | CN(CCc1ccccn1)Cc1ccc2cccc(O)c2n1 | 97 | 57
15 | Oc1cccc2ccc(CN(CCc3c[nH]cn3)Cc3ccccn3)nc12 | 98 | 27
16 | Cc1ccccc1-c1cc(I)c(O)c2ncccc12 | 99 | 38
17 | Nc1ccc(O)c2ncccc12 | 108 | 71
18 | CO/N=C/c1ccc2c(Cl)cc(Cl)c(O)c2n1 | 77 | 54
19 | O=C(O)c1ccc2c(Cl)cc(Cl)c(O)c2n1 | 88 | 80
20 | Oc1cccc2c(=S)n(Cc3ccccn3)cnc12 | 97 | 90
21 | Cc1cc(C)c2cccnc2c1O | 86 | 85
22 | CCCn1c(CNC)nc2c(O)c(Cl)cc(Cl)c2c1=O | 110 | 102
23 | O=C(NCc1ccccn1)c1ccc2cccc(O)c2n1 | 96 | 85
24 | Nc1cnc2c(O)c(Cl)cc(Cl)c2c1 | 94 | 10
25 | Cc1cccc(-c2ccc3cccc(O)c3n2)n1 | 91 | 58
26 | O=Cc1ccccc1-c1cc(Cl)c2cccnc2c1O | 109 | 99
27 | COc1ccc(-c2cc(Cl)c3cccnc3c2O)cc1 | 97 | 31

Row | SMILES | viability at 4 days, 1 uM [%] | viability at 4 days, 10 uM [%]
28 | O=S(=O)(O)c1cc(I)c(O)c2ncccc12 | 70 | 71
29 | Oc1c(Cl)cc(-c2cccnc2)c2cccnc12 | 101 | 84
30 | O=[N+]([O-])c1cccc(-c2cc(Cl)c3cccnc3c2O)c1 | 92 | 78
31 | COc1ccccc1-c1cc(-c2ccccc2OC)c2cccnc2c1O | 100 | 52
32 | O=C(NCCc1c[nH]cn1)c1ccc2cccc(O)c2n1 | 100 | 100
33 | Cc1cnc2c(O)c(Cl)cc(Cl)c2n1 | 94 | 87
34 | O=C(NCCc1cnc[nH]1)c1cc(O)c2cccc(O)c2n1 | 100 | 100
35 | Cc1ccccc1-c1cc(Cl)c2cccnc2c1O | 100 | 100
36 | Cc1cnc(NC(=O)c2ccc3cccc(O)c3n2)s1 | 94 | 68
37 | Oc1cccc2ccc(CN(Cc3ccccn3)Cc3c[nH]cn3)nc12 | 90 | 70
38 | O=C(O)CNC(=O)c1cc(O)c2cccc(O)c2n1 | 98 | 94
39 | N=C(N)NCc1ccc2cccc(O)c2n1 | 100 | 89
40 | Oc1c(-c2ccsc2)cc(Cl)c2cccnc12 | 93 | 31
41 | NCCNC(=O)c1ccc2cccc(O)c2n1 | 106 | 96
42 | Oc1c(-c2cccc(F)c2)cc(Cl)c2cccnc12 | 98 | 71
43 | O=C(Nc1ccccc1O)c1ccc2cccc(O)c2n1 | 104 | 92
44 | CSc1ccccc1-c1ccc2cccc(O)c2n1 | 114 | 112
45 | CC(Br)CCn1cnc2c(O)c(Cl)cc(Cl)c2c1=O (stereo not shown) | 101 | 73
46 | Oc1cccc2ccc(CN(CCc3c[nH]cn3)Cc3nccs3)nc12 | 82 | 34
47 | O=C(NCc1ccccn1)c1cc(O)c2cccc(O)c2n1 | 100 | 100
48 | Nc1ccc2cccc(O)c2n1 | 95 | 48
49 | Cc1cnc2c(Cl)cc(Cl)c(O)c2n1 | 100 | 93
50 | CCN(CC)Cc1ccc2c(Cl)cc(Cl)c(O)c2n1 | 74 | 70
51 | CC(=O)Nc1ccc2cccc(O)c2n1 | 93 | 89
52 | Oc1c(-c2ccccc2)cc(-c2ccccc2)c2cccnc12 | 97 | 26
53 | O=C(O)CNC(=O)c1ccc2cccc(O)c2n1 | 100 | 89
54 | Oc1ccccc1-c1cc(Cl)c2cccnc2c1O | 100 | 70

Row | SMILES | viability at 4 days, 1 uM [%] | viability at 4 days, 10 uM [%]
55 | O/N=C/c1ccc2cccc(O)c2n1 | 100 | 95
56 | CCOC(=O)c1cnc2c(O)c(CC)ncc2c1 | 103 | 92
57 | Oc1c(-c2cc(F)cc(F)c2)cc(Cl)c2cccnc12 | 90 | 66
58 | Cc1ccc2cccc(O)c2n1 | 98 | 58
59 | Nc1ccccc1NC(=O)c1cc(O)c2cccc(O)c2n1 | 98 | 82
60 | NCc1ccc2cccc(O)c2n1 | 101 | 97
61 | Cc1ccccc1-c1cc(-c2ccccc2C)c2cccnc2c1O | 93 | 34
62 | Oc1c(Cl)cc(Cl)c2cc(Cl)cnc12 | 82 | 55
63 | Cc1nccn1-c1ccc2cccc(O)c2n1 | 104 | 96
64 | Oc1c(I)cc(-c2ccccc2F)c2cccnc12 | 92 | 34
65 | CN(C)c1ccc(-c2cc(Cl)c3cccnc3c2O)cc1 | 94 | 85
66 | Oc1cccc2ccc(CN(Cc3ccccn3)Cc3ccccn3)nc12 | 87 | 23
67 | Oc1c(-c2ccccc2C(F)(F)F)cc(Cl)c2cccnc12 | 96 | 93
68 | O=C(NCCc1ccccn1)c1ccc2cccc(O)c2n1 | 95 | 93
69 | Oc1c(-c2cc(Cl)c3cccnc3c2O)cc(Cl)c2cccnc12 | 97 | 84
70 | Oc1c(I)cc(-c2ccccc2C(F)(F)F)c2cccnc12 | 91 | 90
71 | Oc1c(-c2ccc(F)cc2)cc(Cl)c2cccnc12 | 103 | 75
72 | Oc1ccc(Cl)c2cccnc12 | 94 | 85
73 | O=c1[nH]cnc2c(O)cccc12 | 101 | 89
74 | O/N=C/c1ccc2c(Cl)cc(Cl)c(O)c2n1 | 91 | 70
75 | O=C(c1ccc2cccc(O)c2n1)N(Cc1ccccn1)Cc1ccccn1 | 81 | 79
76 | Oc1cccc2ccc(CNCCc3c[nH]cn3)nc12 | 101 | 43
77 | COc1ccccc1-c1cc(I)c(O)c2ncccc12 | 91 | 35
78 | O=C(CNC(=O)c1cc(O)c2cccc(O)c2n1)NCCc1c[nH]cn1 | 98 | 89
79 | NCc1ccc2c(Cl)cc(Cl)c(O)c2n1 | 100 | 80
80 | Oc1c(Br)cc(-c2ccccc2)c2cccnc12 | 100 | 97
